EC50 data for 13 molecules are collected here from patent US20100129436A1, “SUBTANCES FOR THE PROTECTION OF CELLS AND/OR TISSUES” (priority 2007, published 2010).

This experiment relates to endothelial cells, e.g. cells of the endothelium of the human umbilical cord vein. Briefly: Protection of cultured endothelial cells against cold-induced damage (lactate dehydrogenase release). Type of experiment: cell-based. The conditions noted are these: cells pre-incubated with test substance, medium replaced, then incubated e.g. 24 hours at 0° C, LDH in supernatant, read-out: EC50 (concentration at which 50% of the release of lactate dehydrogenase is inhibited). On the procedure: The active substances are synthesised as described below. The action of the substances on cold-induced damage to cells is quantified in a model system. For this purpose, endothelial cells, e.g. cells of the endothelium of the human umbilical cord vein, are cultured. The cells are incubated with various concentrations of the test substances for variable periods of time and then the medium is replaced by fresh medium without any test substance. Next, the cells are incubated e.g. for 24 hours at 0° C. At the end of the incubation period, the lactate dehydrogenase released is determined in the supernatant of the culture vessels by known methods, this concentration being a measure of cell damage. The effectiveness of the individual compounds is determined by the concentration at which 50% of the release of lactate dehydrogenase is inhibited (EC50).

Structures are written as SMILES. Like-named read-outs stand apart in the source and are kept apart here.

Take `NCCc1ccc(O)c(O)c1` [Dopamine, reference compound]: for the setting “Homo sapiens, Endothelial cell”, the EC50 is 75 µM.

Take `Cc1ccc(S(=O)(=O)NCCc2ccc(O)c(O)c2)cc1` [N-(4-Methylphenylsulfonyl) dopamine]: the EC50 (Homo sapiens, Endothelial cell) came to 12 ± 1 µM.

In the case of `CCCCCCCCCCCCCC(=O)NCCc1ccc(O)c(O)c1` [N-Tetradecanoyl dopamine], the EC50 (Homo sapiens, Endothelial cell) is 1.3 ± 0.2 µM.

With `CCCCCCCC(=O)NCCc1ccc(O)c(O)c1` [N-Octanoyl dopamine], the EC50 (Homo sapiens, Endothelial cell) turned out to be 2.1 ± 0.2 µM.

Turning to `O=C(CCc1ccccc1)NCCc1ccc(O)c(O)c1` [N-(3-Phenylpropanoyl) dopamine], for the setting “Homo sapiens, Endothelial cell”, the EC50 came out at 9 ± 1 µM.

Regarding `CC(CCc1ccc(O)cc1)NCCc1ccc(O)c(O)c1` (stereo not shown) [Dobutamine, reference compound], for the setting “Homo sapiens, Endothelial cell”, the EC50 is 5 µM.

With `CCCCCCCCNC(=O)c1cc(O)ccc1O` [2,5-Dihydroxybenzoyl amidooctane], the EC50 came out at 6 ± 1 µM.

Turning to `CCCCCCCCNC(=O)c1ccc(O)c(O)c1` [3,4-Dihydroxybenzoyl amidooctane], the EC50 is 2.4 ± 0.2 µM.

With `CCCCCCCCCC(=O)NCCc1ccc(O)c(O)c1` [N-Decanoyl dopamine], under “Homo sapiens, Endothelial cell”, the EC50 was 0.9 ± 0.2 µM.

For the molecule `NC[C@H](O)c1ccc(O)c(O)c1` [Noradrenalin, reference compound], the EC50 (Homo sapiens, Endothelial cell) was determined as 700 µM.

For `CCCCCCCCNC(=O)c1cccc(O)c1O` [2,3-Dihydroxybenzoyl amidooctane], the EC50 is 1.2 ± 0.1 µM.

With `CCCCCCCCCCCC(=O)NCCc1ccc(O)c(O)c1` [N-Dodecanoyl dopamine], where the note is “Homo sapiens, Endothelial cell”, the EC50 was found to be 1.2 ± 0.2 µM.

As to `CNCC(O)c1ccc(O)c(O)c1` (stereo not shown) [Adrenalin, reference compound], the EC50 (Homo sapiens, Endothelial cell) was found to be 600 µM.
